Common to all, as to assay type: physicochemical
Data set [1] is described as follows: Evaluation of molar absorption coefficient (UV-vis). To be noted: for Molar absorption coefficient: deionized water, UV-vis spectrometer; for absorption coefficient relative to HNB: times higher than that of HNB. As to the method:
HNB and 9 types of candidate substances were dissolved in deionized water to prepare 100 μg/ml of a stock and then diluted with deionized water to prepare samples of 50, 25 and 12.5 μg/ml. Next, an absorption spectrum was obtained using an analyzer UV-vis spectrometer (Agilent 8453), and then absorption coefficient values at a concentration of […] were measured and shown in Table 1 below.

A short description of data set [2]: Evaluation of magnesium ion detection characteristics and pH stability (color development, 96 well plate). To be noted: sodium phosphate buffer pH 4, 7, 9, 11; specimen 120 μM. As to the method:
200 mM of a magnesium chloride solution was prepared by dissolving 0.9521 g of magnesium chloride in 50 ml of deionized water.
59.99 mg of sodium phosphate monobasic and 70.98 mg of sodium phosphate dibasic were dissolved in 50 ml of distilled water to prepare 10 mM of a sodium phosphate buffer solution, and then 28.85 ml of a sodium phosphate monobasic solution and 21.15 ml of a sodium phosphate dibasic solution were mixed to prepare a sodium phosphate buffer solution at pH 7. In a similar manner, the two solutions were mixed to prepare sodium phosphate buffer solutions having acidity of pH 4, pH 7, pH 9, and pH 11, respectively.
For determination of color development, the HNB and the candidate substance were prepared at concentrations of 240 μM and used for the test.
Hydroxynaphthalene blue (HNB) and 9 types of water-soluble candidate substances selected by the solubility test were diluted with distilled water to prepare specimens at concentrations of 240 μM, respectively.
It was confirmed whether the candidate substances according to the present invention reacted with magnesium ions to be color-developed (discolored). In addition, pH stability was confirmed according to whether the candidate substances were specifically color-developed by reacting only with magnesium ions regardless of a pH change.
The color development of the control (HNB) and […] of candidate substances was confirmed under conditions of blank, a MgCl2 solution, pH 4, pH 7, pH 9, and pH 11 using a 96 well plate (12×6 holes). Specifically, 100 μl of deionized water (blank) was added in a first row of the plate, 100 μl of the MgCl2 solution was added in a second row thereof, and 100 μl of each of solutions at pH 4, pH 7, pH 9, and pH 11 was added in third to sixth rows thereof using 10 mM of the sodium phosphate buffer solution prepared in step a) above. In columns of the plate, 100 μl of specimens prepared at a concentration of 240 μM were added to 6 rows, respectively, and a total of 36 specimens were screened. […]

Data set [3] is described as follows: Evaluation of magnesium ion sensitivity at concentration of less than 10 mM. Here is the method:
Magnesium chloride was dissolved in deionized water and diluted to 8, 10, 12, 14 and 16 mM, respectively, to prepare specimens. Next, as the dye compounds, the HNB and the compound of Chemical Formula 2 were prepared at a concentration of 240 μM, but the compounds of Chemical Formulas 3 and 4 were prepared to be diluted at a concentration of 120 μM by 50% because the molar absorption coefficient of the compounds was two times higher than that of the control (HNB).
In each row of a 96-well plate, […] of the dye compound was filled, and in each column, […] of a diluted magnesium chloride solution was filled, and then the color changes were observed and absorbance was measured. The final concentrations of magnesium chloride in the 96-well plate were 0, 4, 5, 6, 7, and 8 mM, and the final concentrations of HNB and Chemical Formula 2 were 120 μM, respectively, and the final concentrations of Chemical Formulas 3 and 4 were 60 μM, respectively.

Data set [4] in a line: Solubility test in water. The following applies: 10 mg dissolved in 1 ml of deionized water. Here is the method: The solubility in water was measured to confirm the solubility of the synthesized candidate compounds. Specifically, 10 mg of hydroxynaphthalene blue (HNB), which is a compound known to be developed by magnesium ions as a control, and 10 mg of each of the candidate compounds were dissolved in 1 ml of deionized water, and then the solubility was confirmed.
Various color developing dyes represented by Chemical Formula 1 above were dissolved in distilled water (D.W) and the solubility was tested to select a compound having high solubility. The selected compound was diluted at each concentration (100 uM, 50 uM, 25 uM, 12.5 uM, 6.25 uM, and 3.13 uM) and the reaction sensitivity with magnesium (magnesium concentration of 100 mM, 10 mM) by concentration was tested.

“Also recorded” adds a separate entry of the source.

Consider `O=[N+]([O-])c1cc(S(=O)(=O)O)cc(N=Nc2cc(S(=O)(=O)[O-])c3ccccc3c2O)c1O.[Na+]` [Chemical Formula 9], for which, in data set [1], the Molar absorption coefficient was 23,000. Same read-out and setting: next, `O=[N+]([O-])c1cc(N=Nc2c(O)ccc3ccccc23)c(O)c([N+](=O)[O-])c1` [Chemical Formula 8]: 5,117.

Take `Nc1ccc2c(O)c(N=Nc3ccc([N+](=O)[O-])cc3O)c(S(=O)(=O)O)cc2c1` [Chemical Formula 3]: the “pH stability (color development with pH change in the absence of magnesium ions)” value in data set [2] is recorded as “excellent; also recorded: without being influenced by the pH change”. Further, in data set [1], the Molar absorption coefficient is 44,000 and the “absorption coefficient relative to HNB” value was 3.38 times. For the same compound, the “absorption spectrum position after shift by magnesium ions” value in data set [3] (with magnesium ions) came out at 640 nm. In data set [3] (without magnesium ions), the “absorption spectrum position before shift by magnesium ions” value worked out at 500 nm. Regarding `O=[N+]([O-])c1ccc(O)c(N=Nc2cc(S(=O)(=O)O)c3ccccc3c2O)c1` [Chemical Formula 2], in data set [2], the “pH stability (color development with pH change in the absence of magnesium ions)” value is given as “developed to a color clearly different from that in the presence of magnesium ions under neutral to basic conditions”. Besides, in data set [1], the Molar absorption coefficient is on record as 12,000. On to `O=[N+]([O-])c1cc(N=Nc2c(S(=O)(=O)O)cc3cc(Nc4ccccc4)ccc3c2O)c(O)c([N+](=O)[O-])c1` [Chemical Formula 4], for which the “pH stability (color development with pH change in the absence of magnesium ions)” value in data set [2] is listed as “excellent; also recorded: without being influenced by the pH change”. In data set [1], the Molar absorption coefficient was 31,000 and the “absorption coefficient relative to HNB” value amounted to 2.38 times. Take `O=[N+]([O-])c1cc(N=Nc2c(O)cccc2O)c(O)c(S(=O)(=O)O)c1` [Chemical Formula 6]: the Molar absorption coefficient in data set [1] is given as 18,000. As to “hydroxynaphthalene blue [HNB, reference compound]”, the Molar absorption coefficient in data set [1] is listed as 13,000. Moreover, the solubility in water result in data set [4] is “dissolved in water”. For the compound `CC1=NN(c2ccccc2)C(O)C1N=Nc1cc([N+](=O)[O-])cc(S(=O)(=O)O)c1O` (centres unmarked) [Chemical Formula 5], the Molar absorption coefficient in data set [1] is on record as 33,579. On the same count and under the same terms, next, `O=[N+]([O-])c1cc(N=Nc2c(S(=O)(=O)O)cc3cc(Nc4ccccc4)ccc3c2O)c(O)c(S(=O)(=O)O)c1` [Chemical Formula 7]: 25,000.

The values above are taken from patent US11519017B2, “Kit for diagnosing infection with Methicillin-resistant Staphylococcus aureus (MRSA) by detecting magnesium ions” (Bioacts Corporation, priority 2017, dated 2022).
